# Values of other authors as cited in US20250082671A1, “ANIMAL FEED ADDITIVE COMPOSITION, PRE-MIX FEED COMPOSITION AND MANUFACTURING METHOD FOR SUB CLINICAL HYPCALCEMIA RELIEF, ENERGY IMPROVEMENT AND INCREASED MILK PRODUCTION” (Chemlock Metals Corp., priority 2023, published 2025).
# Test system: cows
# Details: multiparous cows compared to un-supplemented ones
substance,measurement,value
chromium propionate complex,dry matter intake (DMI),on average higher
